US20250214978A1, “AT2R AGONIST” (WUHAN HUMANWELL INNOVATIVE DRUG RESEARCH AND DEVELOPMENT …, priority 2022, published 2025)
Like-named read-outs stand apart in the source and are kept apart here.

Columns and labels:
[1] = target: AT2R (Homo sapiens (Human), UniProt P50052); experiment: Binding assay of compounds to AT2R (Tag-lite HTRF ligand binding kit); conditions: 1 hour incubation at room temperature
Protocol: The assay was performed in accordance with the instruction manual of Angiotensin AT2 Receptor Ligand Binding Assay Kit (#C1TT1AT2, Cisbio). First, a compound stock solution (10 mM) was diluted in a gradient at a 5× dilution ratio (including 10 concentrations, each with two replicates). 160 nL of compounds at different concentrations was added to a 384-well plate. 40 μL of 1×TLB was added to each well, and the mixture was shaken at room temperature for 15 minutes. 15 mL centrifuge tube added with 5 mL of 1×TLB was prepared in advance. The frozen labeled cells were thawed in a water bath at 37° C. (for 1 to 2 minutes), and the thawed cells were quickly transferred to the above 15 mL centrifuge tube. The mixture was mixed well and centrifuged at 1,000 g at room temperature for 5 minutes. The supernatant was removed, and the cells were resuspended by adding 2.7 mL 1×TLB. A new 384-well plate was taken, and 10 μL of mixed cells were added into the corresponding wells according to the assay design. 5 μL of 4× compound solution and 5 μL of 4× Tag-lite red fluorescent labeled ligand were added to each well. After incubation at room temperature for 1 hour, data were read using EnVision with an HTRF mode. The excitation light intensities at 665 nM and 615 nM in each well were read respectively, and the ratio was calculated (Ratio=A665nMIB615 nM). The IC50 value was calculated by means of GraphPad Prism8 software, where X represents logarithmic value of compound concentration; and Y represents ratio of A665 nM/B615 nM.

[2] = Free plasma protein binding (PPB) assay, equilibrium dialysis; type: in vitro ADME; conditions: dialysis 6 hours at 37° C.
Protocol: The dried dialysis membrane was soaked in ultrapure water for 1 hour, then soaked in 20% ethanol for 20 minutes, and then rinsed with ultrapure water for 2 to 3 times. Finally, the dried dialysis membrane was soaked in ultrapure water for 20 minutes for later use. The frozen plasma was thawed in a water bath at 37° C. for about 20 minutes. pH value of the plasma was measured after thawing was complete, and was adjusted to 7.4 with 1% phosphoric acid solution or 0.1M sodium hydroxide solution. […] The pretreated dialysis membrane was assembled into the dialysis plate according to product instructions, and 100 μL of receiving solution (100 mM phosphate buffer solution plus 0.002% Tween 80) was added to one side of the permeable membrane in each dialysis well. 20 μL of each of the final solution of the test compound and the final solution of the control compound were taken in a 96-well sample plate, two duplicate samples were made, and T0 sample was obtained, which was stored in a −20° C. refrigerator. Another 100 μL of each of the above-mentioned final solutions were taken to the other side of the membrane in the dialysis device, two duplicate samples were made, and incubated at 37° C. with constant shaking for 6 hours. After 6 hours of incubation, 20 μL of each of the dialyzed receiving solution and the administered plasma were taken, two duplicate samples were made, and sample A and sample B were obtained. Corresponding blank plasma or receiving solution of corresponding volume were added to sample B and sample A, respectively, allowing the volume ratio of plasma to buffer in each sample well to be 1:1. 300 μL of sample-containing internal standard acetonitrile solution was added to all the sample wells. The mixture was mixed well, and centrifuged at 5,500×g for 10 minutes. 150 μL of corresponding ultrapure water was added to the corresponding sample wells of the 96-well sample plate. 150 μL of the supernatant was taken into the sample wells, and mixed well. Then, LC/MS/MS analysis was performed. The calculation formula of fu is: […]
where: CR: peak area ratio measured in the receiving chamber well CD: peak area ratio measured in the supply chamber well.

[3] = target: CYP1A2 (Homo sapiens (Human), UniProt P05177); experiment: CYP inhibition assay in mixed human liver microsomes; type: in vitro ADME
Sequence of CYP1A2 (P05177 whole entry): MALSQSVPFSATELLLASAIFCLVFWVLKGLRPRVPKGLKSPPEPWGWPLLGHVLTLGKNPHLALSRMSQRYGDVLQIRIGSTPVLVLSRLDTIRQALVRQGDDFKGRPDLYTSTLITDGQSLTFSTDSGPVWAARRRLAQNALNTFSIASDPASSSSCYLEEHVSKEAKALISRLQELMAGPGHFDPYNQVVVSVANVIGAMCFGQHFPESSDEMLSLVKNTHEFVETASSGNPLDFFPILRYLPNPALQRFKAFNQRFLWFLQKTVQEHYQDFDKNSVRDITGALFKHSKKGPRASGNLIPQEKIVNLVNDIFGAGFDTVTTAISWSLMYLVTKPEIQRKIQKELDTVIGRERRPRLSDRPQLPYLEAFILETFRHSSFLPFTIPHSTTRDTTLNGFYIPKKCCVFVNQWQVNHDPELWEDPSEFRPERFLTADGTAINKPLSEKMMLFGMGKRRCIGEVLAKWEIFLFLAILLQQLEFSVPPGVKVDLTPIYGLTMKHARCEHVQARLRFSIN
Protocol: (§1) The inhibitory effects of the compounds on seven enzymes, i.e., CYP1A2, CYP2C9, CYP2C19, CYP2D6, CYP3A4 (midazolam), CYP2B6, and CYP2C8, were evaluated at a concentration of 10 μM. Mixed human liver microsomes, which were previously stored in a −80° C. refrigerator before use, were taken out and thawed in a water bath at 37° C. before use, and placed on ice for further operation. 100 μL of microsome working solution was taken, and added with 2 μL of test product or positive inhibitor working solution. 2 μL of solvent was added to the solvent control. The mixture was pre-incubated in a water bath at 37° C. for 10 minutes. After preincubation, 98 μL of NADPH regeneration solution was added to all samples to initiate the reaction. Then, the samples were put back into the water bath and incubated for a period of time. The reaction was quenched with 200 μL of stop solution. The plate was centrifuged at 3,220 g for 10 minutes, 100 μL of supernatant was transferred, and 100 μL of water was added and mixed well to the assay plate for LC/MS/MS analysis.

[4] = target: CYP2D6 (Homo sapiens (Human), UniProt P10635); experiment: as above; type: in vitro ADME; conditions: mixed (pooled) human liver microsomes, read-out: Inhibition rate % CYP2D6
Sequence of CYP2D6 (P10635 whole entry): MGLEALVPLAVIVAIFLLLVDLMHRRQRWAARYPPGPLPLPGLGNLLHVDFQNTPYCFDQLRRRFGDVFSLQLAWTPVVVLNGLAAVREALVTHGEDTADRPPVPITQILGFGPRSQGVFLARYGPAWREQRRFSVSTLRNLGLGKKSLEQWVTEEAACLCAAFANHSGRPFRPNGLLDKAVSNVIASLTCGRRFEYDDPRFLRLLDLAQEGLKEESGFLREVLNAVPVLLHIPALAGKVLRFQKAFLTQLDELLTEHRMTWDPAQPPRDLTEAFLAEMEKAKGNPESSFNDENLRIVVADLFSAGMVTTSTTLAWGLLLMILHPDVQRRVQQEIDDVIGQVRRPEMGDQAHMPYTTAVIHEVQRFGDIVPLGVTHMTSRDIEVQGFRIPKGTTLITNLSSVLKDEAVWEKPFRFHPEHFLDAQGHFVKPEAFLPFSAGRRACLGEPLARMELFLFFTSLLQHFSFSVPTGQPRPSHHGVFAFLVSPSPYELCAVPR
Protocol: as §1

[5] = target: CYP2C8 (Homo sapiens (Human), UniProt P10632); experiment: as above; type: in vitro ADME; conditions: mixed (pooled) human liver microsomes, read-out: Inhibition rate % CYP2C8
Sequence of CYP2C8 (P10632 whole entry): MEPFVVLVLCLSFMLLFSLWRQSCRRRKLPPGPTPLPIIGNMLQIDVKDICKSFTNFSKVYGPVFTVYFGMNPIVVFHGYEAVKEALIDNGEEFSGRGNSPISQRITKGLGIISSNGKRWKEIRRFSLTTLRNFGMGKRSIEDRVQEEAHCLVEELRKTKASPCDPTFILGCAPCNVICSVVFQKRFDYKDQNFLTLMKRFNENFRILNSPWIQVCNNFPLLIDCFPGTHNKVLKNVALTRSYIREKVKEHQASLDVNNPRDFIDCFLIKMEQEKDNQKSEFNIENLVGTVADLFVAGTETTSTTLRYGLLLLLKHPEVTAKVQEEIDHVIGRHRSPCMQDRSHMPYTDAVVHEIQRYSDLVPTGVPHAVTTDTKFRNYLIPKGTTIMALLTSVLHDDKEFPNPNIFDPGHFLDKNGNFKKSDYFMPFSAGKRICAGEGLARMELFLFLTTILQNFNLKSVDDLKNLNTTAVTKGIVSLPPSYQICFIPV
Protocol: as §1

[6] = target: CYP2C9 (Homo sapiens (Human), UniProt P11712); experiment: as above; type: in vitro ADME; conditions: mixed (pooled) human liver microsomes, read-out: Inhibition rate % CYP2C9
Sequence of CYP2C9 (P11712 whole entry): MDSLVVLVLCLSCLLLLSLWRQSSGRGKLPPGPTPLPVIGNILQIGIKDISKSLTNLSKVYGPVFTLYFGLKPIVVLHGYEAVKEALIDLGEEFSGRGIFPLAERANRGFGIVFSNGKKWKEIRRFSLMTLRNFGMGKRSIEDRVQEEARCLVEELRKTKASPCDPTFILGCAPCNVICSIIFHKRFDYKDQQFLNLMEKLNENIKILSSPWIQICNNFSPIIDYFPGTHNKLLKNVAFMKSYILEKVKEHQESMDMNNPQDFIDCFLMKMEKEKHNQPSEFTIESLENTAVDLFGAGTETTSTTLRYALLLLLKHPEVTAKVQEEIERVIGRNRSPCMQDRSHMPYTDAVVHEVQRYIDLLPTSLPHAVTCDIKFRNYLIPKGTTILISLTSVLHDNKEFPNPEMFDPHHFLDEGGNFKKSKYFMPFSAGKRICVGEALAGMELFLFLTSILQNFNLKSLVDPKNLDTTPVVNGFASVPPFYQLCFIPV
Protocol: as §1

[7] = target: CYP2C19 (Homo sapiens (Human), UniProt P33261); experiment: as above; type: in vitro ADME; conditions: mixed (pooled) human liver microsomes, read-out: Inhibition rate % CYP2C19
Sequence of CYP2C19 (P33261 whole entry): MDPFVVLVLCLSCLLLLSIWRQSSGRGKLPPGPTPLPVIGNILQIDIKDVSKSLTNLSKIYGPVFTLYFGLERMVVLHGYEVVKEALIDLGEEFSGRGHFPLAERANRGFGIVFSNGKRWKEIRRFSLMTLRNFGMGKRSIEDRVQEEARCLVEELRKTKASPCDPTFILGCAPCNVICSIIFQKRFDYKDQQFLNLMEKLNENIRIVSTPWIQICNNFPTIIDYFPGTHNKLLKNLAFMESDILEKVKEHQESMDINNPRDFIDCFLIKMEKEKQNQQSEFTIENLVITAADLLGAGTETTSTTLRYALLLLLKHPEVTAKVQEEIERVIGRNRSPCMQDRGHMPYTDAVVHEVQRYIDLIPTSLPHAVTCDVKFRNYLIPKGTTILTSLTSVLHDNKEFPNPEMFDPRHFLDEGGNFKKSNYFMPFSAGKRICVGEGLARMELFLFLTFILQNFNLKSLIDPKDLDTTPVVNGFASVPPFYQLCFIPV
Protocol: as §1

[8] = target: CYP3A4 (Homo sapiens (Human), UniProt P08684); experiment: as above; type: in vitro ADME; conditions: mixed (pooled) human liver microsomes, probe midazolam, read-out: Inhibition rate % CYP3A4 (midazolam)
Sequence of CYP3A4 (P08684 whole entry): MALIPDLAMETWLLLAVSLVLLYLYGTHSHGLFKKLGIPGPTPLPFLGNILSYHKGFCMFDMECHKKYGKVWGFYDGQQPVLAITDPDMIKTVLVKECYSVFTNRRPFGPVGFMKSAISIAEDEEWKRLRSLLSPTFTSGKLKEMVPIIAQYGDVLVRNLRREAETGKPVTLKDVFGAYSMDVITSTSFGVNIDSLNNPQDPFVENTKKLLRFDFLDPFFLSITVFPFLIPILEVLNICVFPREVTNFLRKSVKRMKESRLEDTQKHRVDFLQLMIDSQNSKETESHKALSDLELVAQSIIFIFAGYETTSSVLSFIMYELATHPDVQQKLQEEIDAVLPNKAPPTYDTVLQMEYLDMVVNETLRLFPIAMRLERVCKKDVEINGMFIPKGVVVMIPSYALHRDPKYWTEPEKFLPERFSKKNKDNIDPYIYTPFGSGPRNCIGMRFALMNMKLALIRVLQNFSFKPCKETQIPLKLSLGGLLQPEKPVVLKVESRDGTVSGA
Protocol: as §1

[9] = target: CYP2B6 (Homo sapiens (Human), UniProt P20813); experiment: as above; type: in vitro ADME; conditions: mixed (pooled) human liver microsomes, read-out: Inhibition rate % CYP2B6
Sequence of CYP2B6 (P20813 whole entry): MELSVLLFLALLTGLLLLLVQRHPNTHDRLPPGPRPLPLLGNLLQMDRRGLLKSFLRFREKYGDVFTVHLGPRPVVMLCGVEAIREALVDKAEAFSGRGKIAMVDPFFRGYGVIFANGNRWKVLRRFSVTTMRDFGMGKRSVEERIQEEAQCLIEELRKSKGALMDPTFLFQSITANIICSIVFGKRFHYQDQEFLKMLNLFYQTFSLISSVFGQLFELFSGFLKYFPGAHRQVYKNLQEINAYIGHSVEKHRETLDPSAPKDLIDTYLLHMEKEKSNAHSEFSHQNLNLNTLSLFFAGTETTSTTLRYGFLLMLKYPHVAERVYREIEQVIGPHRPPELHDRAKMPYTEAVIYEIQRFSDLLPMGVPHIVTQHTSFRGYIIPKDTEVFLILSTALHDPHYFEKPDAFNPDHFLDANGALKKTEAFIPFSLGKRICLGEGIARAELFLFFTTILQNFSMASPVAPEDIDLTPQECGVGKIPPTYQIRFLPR
Protocol: as §1

[10] = Liver microsome stability assay; type: in vitro ADME; conditions: dog; Canine liver microsomes; read-out: T1/2 (min) Canine
[11] = Liver microsome stability assay; type: in vitro ADME; conditions: Human liver microsomes, NADPH, 37° C.; read-out: T1/2 (min) Human
Protocol: The human liver microsome stability assay was performed by co-incubating the compound with human liver microsomes in vitro. The test compounds were first prepared as 10 mM stock solutions in DMSO solvent, and then diluted to 0.5 mM with acetonitrile. Human liver microsomes (Corning) were diluted with PBS to prepare a microsome/buffer solution, and this solution was used to dilute 0.5 mM of the compound to prepare a working solution. In the working solution, a concentration of the compound was 1.5 μM and a concentration of the human liver microsome was 0.75 mg/ml. A deep-well plate was taken, 30 μL of working solution was added to each well of the plate, and then 15 μL of pre-heated NADPH solution (6 mM) was added to start the reaction. The mixture was incubated at 37° C. 135 μL of acetonitrile was added to the corresponding wells to stop the reaction at 0 minute, 5 minutes, 15 minutes, 30 minute, and 45 minutes of incubation. Subsequent to the stop of the reaction by means of acetonitrile at the last time point of 45 minute, the plate was vortexed for 10 minutes (600 rpm/min) and then centrifuged for 15 minutes. […] The peak area ratios of the compound at 5 minutes, 15 minutes, 30 minutes, and 45 minutes were compared with the peak area ratio at 0 minute, and the remaining percentage of the compound at each time point was calculated. T1/2 was calculated using Graphpad8 software.

[12] = Liver microsome stability assay; type: in vitro ADME; conditions: Mouse liver microsomes; read-out: T1/2 (min) Mouse
[13] = Liver microsome stability assay; type: in vitro ADME; conditions: Rat liver microsomes; read-out: T1/2 (min) Rat
[14] = dog, pH 7.4, Canine plasma, read-out: fu % Canine
[15] = pH 7.4, Human plasma, read-out: fu % Human
[16] = pH 7.4, Mouse plasma, read-out: fu % Mouse
[17] = pH 7.4, Rat plasma, read-out: fu % Rat

Sequence of AT2R (P50052 whole entry): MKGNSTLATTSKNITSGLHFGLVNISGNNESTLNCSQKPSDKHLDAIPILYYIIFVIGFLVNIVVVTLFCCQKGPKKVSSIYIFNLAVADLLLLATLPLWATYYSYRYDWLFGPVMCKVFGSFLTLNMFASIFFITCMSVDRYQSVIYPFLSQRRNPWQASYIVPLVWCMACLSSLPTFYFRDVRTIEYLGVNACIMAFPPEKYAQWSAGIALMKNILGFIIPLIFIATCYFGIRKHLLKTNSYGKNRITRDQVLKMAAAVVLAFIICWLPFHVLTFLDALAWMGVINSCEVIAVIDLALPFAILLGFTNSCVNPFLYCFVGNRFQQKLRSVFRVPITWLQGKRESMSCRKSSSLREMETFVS

Row | SMILES | IC50 [1] [nM] | fraction unbound at 6 h, 1 μM [2, 14] | fraction unbound at 6 h, 1 μM [2, 15] | fraction unbound at 6 h, 1 μM [2, 16] | fraction unbound at 6 h, 1 μM [2, 17] | inhibition at 10 µM [3] [%] | inhibition at 10 µM [4] [%] | inhibition at 10 µM [5] [%] | inhibition at 10 µM [6] [%] | inhibition at 10 µM [7] [%] | inhibition at 10 µM [8] [%] | inhibition at 10 µM [9] [%] | half-life at 1 μM [10] [min] | half-life at 1 μM [11] [min] | half-life at 1 μM [12] [min] | half-life at 1 μM [13] [min]
1 | COC(=O)NS(=O)(=O)c1sc(CC(C)C)cc1-c1ccc(Cn2ccnc2C)cc1C [Compound I-11, Methyl (5-isobutyl-3-(2-methyl-4-((2-methyl-1H-imidazol-1-yl)methyl)phenyl)thiophen-2-yl)sulfonylcarbamate] | 1.51 | 0.0185 | 0.0039 | 0.0121 | 0.0097 | 0 | 1.97 | 12.6 | 28.3 | 11 | 13.4 | 27.6 |  |  |  | 
2 | CCCCOC(=O)NS(=O)(=O)c1sc(CC(C)C)cc1-c1ccc(Cn2ccnc2C)c(C#N)c1 [Compound I-12, Butyl ((3-(3-cyano-4-((2-methyl-1H-imidazol-1-yl)methyl)phenyl)-5-isobutylthiophen-2-yl)sulfonyl)carbamate] | 1.35 |  |  |  |  | 4.18 | 10.4 | 39.5 | 45.8 | 30.2 | 21.1 | 31.6 |  |  |  | 
3 | COC(=O)NS(=O)(=O)c1sc(CC(C)C)cc1-c1ccc(Cn2ccnc2C(C)(C)C)c(C#N)c1 [Compound I-13, Methyl ((3-(4-((2-(tert-butyl)-1H-imidazol-1-yl)methyl)-3-cyanophenyl)-5-isobutylthiophen-2-yl)sulfonyl)carbamate] | 1.72 | 0.0116 |  | 0.0211 | 0.0043 | 0.54 | 6.5 | 82.7 | 20.2 | 11.7 | 0 | 18.3 |  |  |  | 
4 | CCc1nccn1Cc1ccc(-c2cc(CC(C)C)sc2S(=O)(=O)NC(=O)OC)cc1C#N [Compound I-14, Methyl ((3-(3-cyano-4-((2-ethyl-1H-imidazol-1-yl)methyl)phenyl)-5-isobutylthiophen-2-yl)sulfonyl)carbamate] | 1.68 |  |  | 0.0427 |  | 0 | 11.4 | 50.6 | 32.8 | 21.7 | 0 | 16.9 |  |  |  | 
5 | COC(=O)NS(=O)(=O)c1sc(CC(C)C)c(C)c1-c1ccc(Cn2ccnc2C)cc1 [Compound I-16, Methyl (5-isobutyl-4-methyl-3-(4-((2-methyl-1H-imidazol-1-yl)methyl)phenyl)thiophen-2-yl)sulfonylcarbamate] | 2.68 | 0.0349 | 0.0126 |  | 0.0109 | 25 | 9.54 | 33.6 | 46.8 | 35.3 | 6.78 | 11.1 | 578 | 239 | 1730 | 83.5
